The Ki is a dissociation constant, usually derived from enzyme kinetics or from competition with a known ligand.

One experiment deals with T1, DDR1 (Homo sapiens, UniProt Q08345).
T1 construct: purchased Carna Biosciences
Kind of experiment: LanthaScreen Europium Kinase Binding assay, DDR1. As to conditions: 5 nM DDR1, 20 nM Kinase Tracer 178, 1 h at rt; Ki from IC50 by Cheng-Prusoff; read-out: Ki DDR1. On the procedure: (§1) DDR1 and DDR2 binding assays were performed using Life Technologies LanthaScreen™ Europium Kinase Binding assay. […] IC50 values were determined in GraphPad Prism 7.0 software, using 4 parameter model: log (inhibitor) vs. response. IC50 values were converted in Ki using the Cheng-Prusoff equation (Ki-IC50/(1+ [Tracer]/Kd).

Another experiment concerns the target T2, DDR2 (Homo sapiens, UniProt Q16832).
T2 construct: purchased Life Technologies
T2 sequence (Q16832 22-855): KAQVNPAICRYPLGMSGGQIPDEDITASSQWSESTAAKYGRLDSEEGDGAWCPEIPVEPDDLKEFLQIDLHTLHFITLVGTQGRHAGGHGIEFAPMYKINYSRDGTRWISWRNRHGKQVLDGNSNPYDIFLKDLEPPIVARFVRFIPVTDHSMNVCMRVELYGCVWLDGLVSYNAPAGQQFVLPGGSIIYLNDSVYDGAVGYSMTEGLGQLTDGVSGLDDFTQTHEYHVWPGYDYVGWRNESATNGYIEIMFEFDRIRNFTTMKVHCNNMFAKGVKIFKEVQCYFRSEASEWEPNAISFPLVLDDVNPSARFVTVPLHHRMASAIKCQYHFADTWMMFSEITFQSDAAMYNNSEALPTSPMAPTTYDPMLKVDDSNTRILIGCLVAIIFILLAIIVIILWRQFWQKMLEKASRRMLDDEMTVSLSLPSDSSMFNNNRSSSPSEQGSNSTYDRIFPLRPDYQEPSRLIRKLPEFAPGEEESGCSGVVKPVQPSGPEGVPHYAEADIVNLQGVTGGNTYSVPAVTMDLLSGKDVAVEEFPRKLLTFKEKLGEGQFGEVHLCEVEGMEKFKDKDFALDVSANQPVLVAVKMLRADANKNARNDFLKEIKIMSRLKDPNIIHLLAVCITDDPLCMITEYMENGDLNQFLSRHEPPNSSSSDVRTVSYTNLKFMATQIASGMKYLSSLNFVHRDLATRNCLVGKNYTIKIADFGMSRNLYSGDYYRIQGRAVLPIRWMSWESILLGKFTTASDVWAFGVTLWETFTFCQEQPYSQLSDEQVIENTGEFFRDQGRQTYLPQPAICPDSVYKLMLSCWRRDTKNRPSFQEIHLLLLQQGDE
Kind of experiment: LanthaScreen Europium Kinase Binding assay, DDR2. Particulars: 5 nM DDR2, 10 nM Kinase Tracer 178, 1 h at rt; Ki from IC50 by Cheng-Prusoff; read-out: Ki DDR2. Here is the method:
as §1
(In TR-FRET formats the signal depends on donor and acceptor labels being close together.)

T1 sequence (Q08345 19-913): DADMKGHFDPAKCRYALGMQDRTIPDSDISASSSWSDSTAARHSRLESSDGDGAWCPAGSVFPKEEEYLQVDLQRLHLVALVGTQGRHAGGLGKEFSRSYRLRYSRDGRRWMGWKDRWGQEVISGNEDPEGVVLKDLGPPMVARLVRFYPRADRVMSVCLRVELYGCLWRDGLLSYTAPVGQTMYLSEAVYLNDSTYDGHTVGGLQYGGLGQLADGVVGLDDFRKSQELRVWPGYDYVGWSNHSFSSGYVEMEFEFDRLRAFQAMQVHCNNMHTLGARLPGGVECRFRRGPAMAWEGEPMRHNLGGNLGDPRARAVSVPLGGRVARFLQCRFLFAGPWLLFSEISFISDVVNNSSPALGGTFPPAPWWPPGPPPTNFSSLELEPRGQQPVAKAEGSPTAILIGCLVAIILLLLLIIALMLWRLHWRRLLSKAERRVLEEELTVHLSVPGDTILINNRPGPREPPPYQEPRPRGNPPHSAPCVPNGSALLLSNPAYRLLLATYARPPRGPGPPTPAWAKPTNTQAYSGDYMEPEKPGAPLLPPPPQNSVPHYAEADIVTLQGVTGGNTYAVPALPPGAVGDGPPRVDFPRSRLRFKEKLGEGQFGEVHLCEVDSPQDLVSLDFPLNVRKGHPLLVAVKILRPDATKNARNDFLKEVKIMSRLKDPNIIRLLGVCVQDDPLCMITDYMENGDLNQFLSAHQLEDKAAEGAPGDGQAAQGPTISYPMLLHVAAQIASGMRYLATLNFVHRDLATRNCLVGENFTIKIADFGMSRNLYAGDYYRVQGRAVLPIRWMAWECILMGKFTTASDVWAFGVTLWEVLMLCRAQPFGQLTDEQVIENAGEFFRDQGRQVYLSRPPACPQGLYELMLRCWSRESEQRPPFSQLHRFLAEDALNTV

On to `CN(C(=O)Nc1cc(C(F)(F)F)ccn1)C1CC2(C1)CN(C(=O)c1ncnc3ccsc13)C2` [Example 263, 1-methyl-1-(2-(thieno[3,2-d]pyrimidine-4-carbonyl)-2-azaspiro[3.3]heptan-6-yl)-3-(4-(trifluoromethyl)pyridin-2-yl)urea], for which the Ki on DDR1 was under 5 nM; at DDR2, 5 to 25 nM.

For the molecule `CCc1ccc(C(F)(F)F)cc1NC(=O)N(C)C1CC2(C1)CN(C(=O)c1cnn3ccn(C)c13)C2` [Example 264, 3-(2-ethyl-5-(trifluoromethyl)phenyl)-1-methyl-1-(2-(1-methyl-1H-imidazo[1,2-b]pyrazole-7-carbonyl)-2-azaspiro[3.3]heptan-6-yl)urea], the values for the Ki on DDR1 and on DDR2 were under 5 nM and 5 to 25 nM, respectively.

For `Cc1c(F)cc(NC(=O)N(C)C2CC3(C2)CN(C(=O)c2cnn4ccn(C)c24)C3)cc1C(F)(F)F` [Example 265, 3-(3-fluoro-4-methyl-5-(trifluoromethyl)phenyl)-1-methyl-1-(2-(1-methyl-1H-imidazo[1,2-b]pyrazole-7-carbonyl)-2-azaspiro[3.3]heptan-6-yl)urea], the Ki on DDR1 and at DDR2 was under 5 nM throughout.

On to `CN(C(=O)Nc1cncc(C(F)(F)C(F)(F)F)c1)C1CC2(C1)CN(C(=O)c1cnn3ccn(C)c13)C2` [Example 266, 1-methyl-1-(2-(1-methyl-1H-imidazo[1,2-b]pyrazole-7-carbonyl)-2-azaspiro[3.3]heptan-6-yl)-3-(5-(perfluoroethyl)pyridin-3-yl)urea], for which the Ki was under 5 nM at DDR1 and 5 to 25 nM at DDR2.

As for `CN(C(=O)Nc1cc(C(F)(F)F)cc(Cl)n1)C1CC2(C1)CN(C(=O)c1cnn3ccn(C)c13)C2` [Example 267, 3-(6-chloro-4-(trifluoromethyl)pyridin-2-yl)-1-methyl-1-(2-(1-methyl-1H-imidazo[1,2-b]pyrazole-7-carbonyl)-2-azaspiro[3.3]heptan-6-yl)urea], the Ki on DDR1 and at DDR2 was under 5 nM throughout.

With `Cc1cc(NC(=O)N(C)C2CC3(C2)CN(C(=O)c2ncnc4[nH]ccc24)C3)cc(C(F)(F)F)c1` [Example 268, 1-(2-(7H-pyrrolo[2,3-d]pyrimidine-4-carbonyl)-2-azaspiro[3.3]heptan-6-yl)-1-methyl-3-(3-methyl-5-(trifluoromethyl)phenyl)urea], the figures for the Ki on DDR1 and at DDR2 were under 5 nM and 5 to 25 nM, respectively.

Regarding `Cc1ccc(C(F)(F)F)cc1NC(=O)OC1CC2(C1)CN(C(=O)c1cnn3ccn(C)c13)C2` [Example 270, 2-(1-methyl-1H-imidazo[1,2-b]pyrazole-7-carbonyl)-2-azaspiro[3.3]heptan-6-yl(2-methyl-5-(trifluoromethyl)phenyl)carbamate], the Ki at DDR1 and at DDR2 was under 5 nM each time.

On to `Cn1ccn2ncc(C(=O)N3CC4(CC(OC(=O)Nc5cc(C(C)(C)C(F)(F)F)on5)C4)C3)c12` [Example 271, 2-(1-methyl-1H-imidazo[1,2-b]pyrazole-7-carbonyl)-2-azaspiro[3.3]heptan-6-yl(5-(1,1,1-trifluoro-2-methylpropan-2-yl)isoxazol-3-yl)carbamate], for which the Ki on DDR1 and on DDR2 was under 5 nM in each case.

For the molecule `O=C(Nc1cc(OC(F)(F)F)ccn1)OC1CC2(C1)CN(C(=O)c1cnn3ccsc13)C2` [Example 272, 2-(pyrazolo[5,1-b]thiazole-7-carbonyl)-2-azaspiro[3.3]heptan-6-yl(4-(trifluoromethoxy)pyridin-2-yl)carbamate], the Ki on DDR1 and on DDR2 was under 5 nM throughout.

For `O=C(Nc1cncc(C(F)(F)F)c1)OC1CC2(C1)CN(C(=O)c1cnn3ccsc13)C2` [Example 273, 2-(pyrazolo[5,1-b]thiazole-7-carbonyl)-2-azaspiro[3.3]heptan-6-yl(5-(trifluoromethyl)pyridin-3-yl)carbamate], the Ki at DDR1 and at DDR2 was under 5 nM each time.

For `Cn1ccn2ncc(C(=O)N3CC4(CC(CC(=O)Nc5cncc(C(F)(F)F)c5)C4)C3)c12` [Example 274, 2-(2-(1-methyl-1H-imidazo[1,2-b]pyrazole-7-carbonyl)-2-azaspiro[3.3]heptan-6-yl)-N-(5-(trifluoromethyl)pyridin-3-yl)acetamide], the figures for the Ki at DDR1 and on DDR2 were under 5 nM and 5 to 25 nM, respectively.

`O=C(CC1CC2(C1)CN(C(=O)c1cnn3ccsc13)C2)Nc1cncc(OC(F)(F)F)c1` [Example 275, 2-(2-(pyrazolo[5,1-b]thiazole-7-carbonyl)-2-azaspiro[3.3]heptan-6-yl)-N-(5-(trifluoromethoxy)pyridin-3-yl)acetamide]: the Ki on DDR1 and at DDR2 was under 5 nM in each case.

With `Cn1ccn2ncc(C(=O)N3CC4(CC(CC(=O)Nc5cc(OC(F)(F)F)ccc5F)C4)C3)c12` [Example 276, N-(2-fluoro-5-(trifluoromethoxy)phenyl)-2-(2-(1-methyl-1H-imidazo[1,2-b]pyrazole-7-carbonyl)-2-azaspiro[3.3]heptan-6-yl)acetamide], the Ki on DDR1 and at DDR2 was under 5 nM each time.

With `Cn1ccn2ncc(C(=O)N3CC4(CC(CC(=O)Nc5cc(OC(F)(F)F)ccn5)C4)C3)c12` [Example 277, 2-(2-(1-methyl-1H-imidazo[1,2-b]pyrazole-7-carbonyl)-2-azaspiro[3.3]heptan-6-yl)-N-(4-(trifluoromethoxy)pyridin-2-yl)acetamide], the figures for the Ki on DDR1 and on DDR2 were under 5 nM and 5 to 25 nM, respectively.

`Cc1ccc(OC(F)(F)F)cc1NC(=O)CC1CC2(C1)CN(C(=O)c1cnn3ccn(C)c13)C2` [Example 278, 2-(2-(1-methyl-1H-imidazo[1,2-b]pyrazole-7-carbonyl)-2-azaspiro[3.3]heptan-6-yl)-N-(2-methyl-5-(trifluoro-methoxy)phenyl)acetamide]: the Ki at DDR1 was under 5 nM; at DDR2, 5 to 25 nM.

For `Cn1ccn2ncc(C(=O)N3CC4(CC(CC(=O)Nc5cc(C(F)(F)F)ccn5)C4)C3)c12` [Example 279, 2-(2-(1-methyl-1H-imidazo[1,2-b]pyrazole-7-carbonyl)-2-azaspiro[3.3]hepan-6-yl)-N-(4-(trifluoromethyl)pyridin-2-yl)acetamide], the Ki at DDR1 and on DDR2 was under 5 nM throughout.

For the molecule `Cc1ccc(OC(F)(F)F)cc1NC(=O)N(C)C1CC2(C1)CN(C(=O)c1ncnc3ccsc13)C2` [Example 280, 1-methyl-3-(2-methyl-5-(trifluoromethoxy)phenyl)-1-(2-(thieno[3,2-d]pyrimidine-4-carbonyl)-2-azaspiro[3.3]heptan-6-yl)urea], the Ki at DDR1 and at DDR2 was under 5 nM each time.

As to `Cc1cc(NC(=O)N(C)C2CC3(C2)CN(C(=O)c2cnn4ccn(C)c24)C3)cc(OC(F)(F)F)c1` [Example 281, 1-methyl-1-(2-(1-methyl-1H-imidazo[1,2-b]pyrazole-7-carbonyl)-2-azaspiro[3.3]heptan-6-yl)-3-(3-methyl-5-(trifluoromethoxy)phenyl)urea], the Ki at DDR1 was under 5 nM; on DDR2, 5 to 25 nM.

Turning to `CCc1ccc(C(F)(F)F)cc1NC(=O)NC1CC2(C1)CN(C(=O)c1cnn3ccn(C)c13)C2` [Example 282, 1-(2-ethyl-5-(trifluoromethyl)phenyl)-3-(2-(1-methyl-1H-imidazo[1,2-b]pyrazole-7-carbonyl)-2-azaspiro[3.3]heptan-6-yl)urea], the Ki at DDR1 and at DDR2 was under 5 nM throughout.

As to `Cc1c(F)cc(C(F)(F)F)cc1NC(=O)N(C)C1CC2(C1)CN(C(=O)c1cnn3ccn(C)c13)C2` [Example 283, 3-(3-fluoro-2-methyl-5-(trifluoromethyl)phenyl)-1-methyl-1-(2-(1-methyl-1H-imidazo[1,2-b]pyrazole-7-carbonyl)-2-azaspiro[3.3]heptan-6-yl)urea], the Ki on DDR1 is under 5 nM; on DDR2, 5 to 25 nM.

Regarding `CN(C(=O)Nc1cc(C#N)cc(C(F)(F)F)c1)C1CC2(C1)CN(C(=O)c1ncnc3[nH]ccc13)C2` [Example 284, 1-(2-(7H-pyrrolo[2,3-d]pyrimidine-4-carbonyl)-2-azaspiro[3.3]heptan-6-yl)-3-(3-cyano-5-(trifluoromethyl)phenyl)-1-methylurea], the Ki is under 5 nM at DDR1 and 5 to 25 nM on DDR2.

As to `CN(C(=O)Nc1cc(C(F)(F)F)ccc1Cl)C1CC2(C1)CN(C(=O)c1ncnc3[nH]ccc13)C2` [Example 285, 1-(2-(7H-pyrrolo[2,3-d]pyrimidine-4-carbonyl)-2-azaspiro[3.3]heptan-6-yl)-3-(2-chloro-5-(trifluoromethyl)phenyl)-1-methylurea], the Ki on DDR1 and at DDR2 was under 5 nM in each case.

Values taken from patent US20260285855A1, “HETEROARYL DERIVATIVES AS DDRS INHIBITORS” (CHIESI FARMACEUTICI S.P.A., priority 2023, published 2026).
